Several values for one entry are separate records, joined by “and”; a condition that tells them apart may be missing. Identical values can stand only once. Toxic doses and inconclusive results are not listed. The calls were made as follows: active = survival T/C of 150% or more; inactive = T/C below 125% in these data.
Tested on: CD2F1 mice, L1210 leukemia ip, survival T/C
Test: NCI In Vivo Anticancer Drug Screen. Data for tumor model L1210 Leukemia (intraperitoneal) in CD2F1 (CDF1) mice
Conditions: higher = longer survival
In short: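 Vehicle-treated tumor-bearing mice served as controls (C) for compound-treated mice (T). Reported figure is T divided by C.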

[1] = endpoint: mean survival time, dose: 25.0 mg/kg/injection, schedule: Q04DX003 (ip), vehicle: saline with Tween-80
[2] = endpoint: mean survival time, dose: 50.0 mg/kg/injection, schedule: Q04DX003 (ip), vehicle: saline with Tween-80
[3] = endpoint: mean survival time, dose: 100.0 mg/kg/injection, schedule: Q04DX003 (ip), vehicle: saline with Tween-80
[4] = endpoint: mean survival time, dose: 200.0 mg/kg/injection, schedule: Q04DX003 (ip), vehicle: saline with Tween-80
[5] = endpoint: mean survival time, dose: 400.0 mg/kg/injection, schedule: Q04DX003 (ip), vehicle: saline with Tween-80
[6] = endpoint: mean survival time, dose: 12.5 mg/kg/injection, schedule: Q04DX003 (ip), vehicle: saline
[7] = endpoint: mean survival time, dose: 25.0 mg/kg/injection, schedule: Q04DX003 (ip), vehicle: saline
[8] = endpoint: mean survival time, dose: 25.0 mg/kg/injection, schedule: Q01DX009 (ip), vehicle: other
[9] = endpoint: mean survival time, dose: 50.0 mg/kg/injection, schedule: Q01DX009 (ip), vehicle: other
[10] = endpoint: mean survival time, dose: 100.0 mg/kg/injection, schedule: Q01DX009 (ip), vehicle: saline with Tween-80
[11] = endpoint: mean survival time, dose: 200.0 mg/kg/injection, schedule: Q01DX009 (ip), vehicle: saline with Tween-80
[12] = endpoint: mean survival time, dose: 400.0 mg/kg/injection, schedule: Q01DX009 (ip), vehicle: saline with Tween-80
[13] = endpoint: mean survival time, dose: 25.0 mg/kg/injection, schedule: Q04DX002 (ip), vehicle: saline with Tween-80
[14] = endpoint: mean survival time, dose: 50.0 mg/kg/injection, schedule: Q04DX002 (ip), vehicle: saline with Tween-80

Measured: T/C

[Cl][Pt][Cl].[NH-]NC(=O)c1ccncc1
inactive: endpoint: mean survival time, dose: 12.5 mg/kg/injection, schedule: Q04DX003 (ip), vehicle: saline with Tween-80 95 % of control | [1] 94 % of control | [2] 91 % of control | [3] 94 % of control | [4] 88 % of control

CNC(=O)Nc1nc2ccc([N+](=O)[O-])cc2[nH]1
inactive: [3] 109 % of control | [4] 105 % of control | [5] 105 % of control

O=C(CSCCN1CCCCC1)N1c2ccccc2Sc2ccccc21
inactive: [6] 104 % of control | [7] 101 % of control | endpoint: mean survival time, dose: 50.0 mg/kg/injection, schedule: Q04DX003 (ip), vehicle: saline 101 % of control

CCOC(=O)C(Br)C(Br)c1cccc([N+](=O)[O-])c1 (stereo unspecified)
inactive: [8] 98 % of control | [9] 98 % of control | endpoint: mean survival time, dose: 100.0 mg/kg/injection, schedule: Q01DX009 (ip), vehicle: other 101 % of control

CC[N+](CC)=C1SCCCS1
inactive: endpoint: mean survival time, dose: 6.25 mg/kg/injection, schedule: Q04DX003 (ip), vehicle: saline 100 % of control | [6] 100 % of control | [7] 100 % of control

CCOC(=O)c1ccc(OC(=O)Nc2ccc(Cl)cc2)cc1
inactive: [10] 96 % of control | [3] 94 % of control | [11] 102 % of control | [4] 94 % of control | [12] 100 % of control

O=c1[nH]cnc2c1ncn2C1OCC(O)C(O)C1O (stereo unspecified)
inactive: endpoint: mean survival time, dose: 100.0 mg/kg/injection, schedule: Q01DX001 (ip), vehicle: saline 102 % of control | endpoint: mean survival time, dose: 200.0 mg/kg/injection, schedule: Q01DX001 (ip), vehicle: saline 97 % of control | endpoint: mean survival time, dose: 400.0 mg/kg/injection, schedule: Q01DX001 (ip), vehicle: saline 103 % of control

NC(CSS(=O)(=O)O)=NCc1cccs1
inactive: [13] 95 % of control | [14] 115 % of control

CN(C)C(SCc1ccccc1)=[N+](C)C
inactive: endpoint: mean survival time, dose: 100.0 mg/kg/injection, schedule: Q04DX002 (ip), vehicle: saline with Tween-80 105 % of control | endpoint: mean survival time, dose: 200.0 mg/kg/injection, schedule: Q04DX002 (ip), vehicle: saline with Tween-80 94 % of control

COc1cc2ccc(CC(N)=O)cc2cc1OC
inactive: [10] 100 % of control | [11] 97 % of control | [12] 97 % of control

CSc1ccc(N2C(N)=NC(N)=NC2(C)C)cc1
inactive: endpoint: mean survival time, dose: 25.0 mg/kg/injection, schedule: Q04DX002 (ip), vehicle: saline 95 % of control | endpoint: mean survival time, dose: 50.0 mg/kg/injection, schedule: Q04DX002 (ip), vehicle: saline 91 % of control

O=C1NC(=O)C2(CCN(CC3COc4ccccc4O3)CC2)N1c1ccccc1 (stereo unspecified)
inactive: endpoint: mean survival time, dose: 50.0 mg/kg/injection, schedule: Q01DX001 (ip), vehicle: saline with Tween-80 96 % of control | endpoint: mean survival time, dose: 100.0 mg/kg/injection, schedule: Q01DX001 (ip), vehicle: saline with Tween-80 101 % of control | endpoint: mean survival time, dose: 200.0 mg/kg/injection, schedule: Q01DX001 (ip), vehicle: saline with Tween-80 96 % of control

CC1CC2CC(=O)CCC2(C)C2CCC3(C)C(O)CCC3C12 (stereo unspecified)
inactive: endpoint: mean survival time, dose: 18.75 mg/kg/injection, schedule: Q01DX009 (ip), vehicle: Klucel (hydroxypropylcellulose) (HPC) 100 % of control | endpoint: mean survival time, dose: 37.5 mg/kg/injection, schedule: Q01DX009 (ip), vehicle: Klucel (hydroxypropylcellulose) (HPC) 100 % of control | endpoint: mean survival time, dose: 75.0 mg/kg/injection, schedule: Q01DX009 (ip), vehicle: Klucel (hydroxypropylcellulose) (HPC) 100 % of control | endpoint: mean survival time, dose: 150.0 mg/kg/injection, schedule: Q01DX009 (ip), vehicle: Klucel (hydroxypropylcellulose) (HPC) 95 % of control | endpoint: mean survival time, dose: 300.0 mg/kg/injection, schedule: Q01DX009 (ip), vehicle: Klucel (hydroxypropylcellulose) (HPC) 95 % of control

C1COC2(CCC3(CC2)OCCO3)O1
inactive: [10] 102 % of control | endpoint: mean survival time, dose: 100.0 mg/kg/injection, schedule: Q04DX003 (ip), vehicle: saline sonified 101 % of control | [11] 102 % of control | endpoint: mean survival time, dose: 200.0 mg/kg/injection, schedule: Q04DX003 (ip), vehicle: saline sonified 101 % of control | [12] 103 % of control | endpoint: mean survival time, dose: 400.0 mg/kg/injection, schedule: Q04DX003 (ip), vehicle: saline sonified 100 % of control

C[C@]12CCC(=O)C=C1CC[C@@H]1[C@@H]2[C@@H](O)C[C@@]2(C)[C@H]1CC[C@]2(O)C(=O)COC(=O)COCC(=O)O
inactive: endpoint: mean survival time, dose: 100.0 mg/kg/injection, schedule: Q01DX001 (sc), vehicle: steriod suspending solution 106 % of control | endpoint: mean survival time, dose: 200.0 mg/kg/injection, schedule: Q01DX001 (sc), vehicle: steriod suspending solution 108 % of control | endpoint: mean survival time, dose: 400.0 mg/kg/injection, schedule: Q01DX001 (sc), vehicle: steriod suspending solution 103 % of control

CC1SC(C(C)(C)C)SC(C)C1C(C)(C)C (stereo unspecified)
inactive: endpoint: mean survival time, dose: 12.5 mg/kg/injection, schedule: Q04DX002 (ip), vehicle: saline with Tween-80 102 % of control | [13] 102 % of control | [14] 102 % of control

CC(C)CCCC(C)C1CCC2C3=CCC4CC(O)CCC4(C)C3CCC21C (stereo unspecified)
inactive: [3] 100 % of control | [4] 91 % of control | [5] 94 % of control

CC(C(=O)c1cccs1)=C(C(F)(F)F)C(F)(F)F
inactive: endpoint: mean survival time, dose: 6.25 mg/kg/injection, schedule: Q01DX009 (ip), vehicle: other 100 % of control | endpoint: mean survival time, dose: 12.5 mg/kg/injection, schedule: Q01DX009 (ip), vehicle: other 94 % of control | [8] 100 % of control | [9] 97 % of control

CCC1CN2CCc3cc(OC)c(OC)cc3C2CC1CC1c2cc(OC)c(OC)cc2CCN1C(=O)C(Cc1c[nH]c2ccccc12)NC(=O)OC(C)(C)C (stereo unspecified)
inactive: endpoint: mean survival time, dose: 8.0 mg/kg/injection, schedule: Q04DX003 (ip), vehicle: saline with Tween-80 93 % of control | endpoint: mean survival time, dose: 16.0 mg/kg/injection, schedule: Q04DX003 (ip), vehicle: saline with Tween-80 95 % of control | endpoint: mean survival time, dose: 32.0 mg/kg/injection, schedule: Q04DX003 (ip), vehicle: saline with Tween-80 98 % of control | endpoint: mean survival time, dose: 64.0 mg/kg/injection, schedule: Q04DX003 (ip), vehicle: saline with Tween-80 89 % of control | endpoint: mean survival time, dose: 128.0 mg/kg/injection, schedule: Q04DX003 (ip), vehicle: saline with Tween-80 87 % of control

O=C1CC(c2ccc(Br)cc2)N(c2ccc([As](=O)(O)O)cc2)C1=O (stereo unspecified)
inactive: endpoint: mean survival time, dose: 6.25 mg/kg/injection, schedule: Q01DX009 (ip), vehicle: Klucel (hydroxypropylcellulose) (HPC) 95 % of control | endpoint: mean survival time, dose: 12.5 mg/kg/injection, schedule: Q01DX009 (ip), vehicle: Klucel (hydroxypropylcellulose) (HPC) 89 % of control | endpoint: median survival time, dose: 6.25 mg/kg/injection, schedule: Q04DX003 (ip), vehicle: saline with Tween-80 100 % of control | endpoint: median survival time, dose: 12.5 mg/kg/injection, schedule: Q04DX003 (ip), vehicle: saline with Tween-80 106 % of control | endpoint: median survival time, dose: 25.0 mg/kg/injection, schedule: Q04DX003 (ip), vehicle: saline with Tween-80 100 % of control

CCCNC(=O)C1C2CCC(CC2)C1C(=O)NCCC (stereo unspecified)
inactive: [3] 98 % of control | [4] 98 % of control | [5] 95 % of control

Fc1cc(F)c(F)c(Oc2c(F)c(F)c(-c3c(F)c(F)c(F)c(F)c3F)c(F)c2F)c1F
inactive: [3] 100 % of control | [4] 91 % of control | [5] 91 % of control

Cc1cccc(C)c1NC(=O)c1ccccc1C(=O)O
inactive: [10] 92 % of control | [3] 98 % of control | [11] 92 % of control | [4] 98 % of control | [12] 97 % of control | [5] 96 % of control

CC(C)(C)OC(=O)NC(CCCCNC(=O)C(F)(F)F)C(=O)ON1C(=O)CCC1=O (stereo unspecified)
inactive: [1] 102 % of control | [2] 102 % of control | [3] 89 % of control and 101 % of control

Source: PubChem BioAssay AID256 (DTP/NCI, 2004)
